Experimental data taken from patent US9648872B2, “Water dispersible granule composition” (priority 2014, dated 2017).
In brackets after ≈: the same amount, converted by molar mass.

Legend:
[1] = cited from earlier work
[2] = Solubility of active ingredient; assay type: physicochemical
From the text: Formulations of water dispersible granules comprising microcapsules encapsulating active ingredients with higher water solubilities: • a. […] When attempting to prepare water dispersible granules comprising microcapsules of Thiamethoxam as per an embodiment of this invention, it was observed that Thiamethoxam was not soluble in the solvent C-9. It is observed that thiamethoxam decomposed immediately beyond its melting point. On attempting to add methylene diphenyl diisocyanate (MDI) in molten Thiamethoxam, it polymerized immediately due to high temperature. Thus Thiamethoxam could not be microencapsulated and it was not possible to prepare its water dispersible granular formulation. • b. […] A water dispersible granular composition comprising microcapsules of 25% Propoxur within a polyurea shell wall with Gohensol GL-03 was made, according to an embodiment of the invention, including maltodextrin as a water soluble suspension adjuvant in the filler base, along with clay, sodium lignosulfonate and alkyl naphthalene sulfonate (Supragil WP). The suspensibility observed was 85%. A water dispersible granule composition comprising microcapsules of 25% Propoxur was prepared with the microcapsules having a polyurea shell wall and polyvinyl alcohol Gohensol GL-03. […]

SMILES: CNC(=O)Oc1ccccc1OC(C)C [Propoxur]
- solubility in water [1]: 1800 µg/mL (≈ 8.6 mM)

SMILES: CN1COCN(Cc2cnc(Cl)s2)/C1=N\[N+](=O)[O-] [Thiamethoxam]
- solubility in the solvent C-9 [2]: not soluble
